Ends that are not written are not given here.
Assay: Bulk transport experiments: release from alginate hydrogels
Conditions: not given

Compound | effect of treatment on EV release from hydrogels
NC1=N[C@H](O)[C@H]2[C@H]3O[C@]4(O)O[C@@H]([C@@H](O)[C@@]2(N1)[C@@H]4O)[C@]3(O)CO [tetrodotoxin] | significantly increased EV release in soft and stiff stress relaxing hydrogels

Same assay, conditions: EVs encapsulated in alginate hydrogels, agent added or tethered

Compound | effect of treatment on EV release from hydrogels
O=C(O)CN(CCOCCOCCN(CC(=O)O)CC(=O)O)CC(=O)O [EGTA] | did not affect the release
CCN(c1nc(N)c(C(=O)NC(=N)N)nc1Cl)C(C)C [EIPA] | did not alter EV release from the hydrogels
O=C(O)c1cc([N+](=O)[O-])ccc1NCCCc1ccccc1 [NPPB] | did not alter EV release from the hydrogels
C[C@@H](N)[C@H]1CC[C@H](C(=O)Nc2ccncc2)CC1 [Y27632] | did not affect the EV release
Cc1ccc2c(c1)C(=O)C1(O)CCN(c3ccccc3)C1=N2 (stereo not drawn) [blebbistatin] | did not affect the EV release
C[C@H](CCC(=O)O)C[C@H](C)C[C@H](C)C(=O)/C=C(\O)[C@H](C)C[C@H](C)C/C=C/[C@@H](C)[C@@H](O)[C@@H](C)[C@@H](O)C[C@@H]1CC[C@@](C)([C@H]2CC[C@@](C)([C@@H](C)O)O2)O1 [ionomycin] | did not affect the release
GsMTx4: a selective inhibition of cation-permeable mechanosensitive channels (GCLEFWWKCNPNDDKCCRPKLKCSKLFKLCNFSF; ends and bridges not checked; cysteine pairing not given here; UniProt Q7YT39 47-80, looked up) | increased EV release in stiff stress relaxing hydrogels

Same assay, conditions: added to EV preparations during lyophilization

Compound | release behavior of lyophilized EVs with cryoprotectant
OC[C@H]1O[C@H](O[C@H]2O[C@H](CO)[C@@H](O)[C@H](O)[C@H]2O)[C@H](O)[C@@H](O)[C@@H]1O [trehalose] | recovered release behavior

Reference: US12042545B2, “Encapsulated extracellular vesicles” (THE BOARD OF TRUSTEES OF THE UNIVERSITY OF ILLINOIS, priority 2020, dated 2024)
